Our source for the EC50 values is US12617795B2, “Substituted 6,7-dihydro-5H-pyrrolo[3,4-d]pyrimidines, 5,7-dihydrofuro[3,4-d]pyrimidines, and pyrido[2,3-d]pyrimidines as KCC2 modulators” (Astrazeneca AB, priority 2020, dated 2026).

The target of the assay is T1, KCC2 (Homo sapiens, UniProt Q9H2X9).
T1 construct: expressed in transfected cells; host or cells: HEK293 cells electroporated (Maxcyte STX) with the pcDNA3.1 KCC2 plasmid
T1 sequence (Q9H2X9 1-1139): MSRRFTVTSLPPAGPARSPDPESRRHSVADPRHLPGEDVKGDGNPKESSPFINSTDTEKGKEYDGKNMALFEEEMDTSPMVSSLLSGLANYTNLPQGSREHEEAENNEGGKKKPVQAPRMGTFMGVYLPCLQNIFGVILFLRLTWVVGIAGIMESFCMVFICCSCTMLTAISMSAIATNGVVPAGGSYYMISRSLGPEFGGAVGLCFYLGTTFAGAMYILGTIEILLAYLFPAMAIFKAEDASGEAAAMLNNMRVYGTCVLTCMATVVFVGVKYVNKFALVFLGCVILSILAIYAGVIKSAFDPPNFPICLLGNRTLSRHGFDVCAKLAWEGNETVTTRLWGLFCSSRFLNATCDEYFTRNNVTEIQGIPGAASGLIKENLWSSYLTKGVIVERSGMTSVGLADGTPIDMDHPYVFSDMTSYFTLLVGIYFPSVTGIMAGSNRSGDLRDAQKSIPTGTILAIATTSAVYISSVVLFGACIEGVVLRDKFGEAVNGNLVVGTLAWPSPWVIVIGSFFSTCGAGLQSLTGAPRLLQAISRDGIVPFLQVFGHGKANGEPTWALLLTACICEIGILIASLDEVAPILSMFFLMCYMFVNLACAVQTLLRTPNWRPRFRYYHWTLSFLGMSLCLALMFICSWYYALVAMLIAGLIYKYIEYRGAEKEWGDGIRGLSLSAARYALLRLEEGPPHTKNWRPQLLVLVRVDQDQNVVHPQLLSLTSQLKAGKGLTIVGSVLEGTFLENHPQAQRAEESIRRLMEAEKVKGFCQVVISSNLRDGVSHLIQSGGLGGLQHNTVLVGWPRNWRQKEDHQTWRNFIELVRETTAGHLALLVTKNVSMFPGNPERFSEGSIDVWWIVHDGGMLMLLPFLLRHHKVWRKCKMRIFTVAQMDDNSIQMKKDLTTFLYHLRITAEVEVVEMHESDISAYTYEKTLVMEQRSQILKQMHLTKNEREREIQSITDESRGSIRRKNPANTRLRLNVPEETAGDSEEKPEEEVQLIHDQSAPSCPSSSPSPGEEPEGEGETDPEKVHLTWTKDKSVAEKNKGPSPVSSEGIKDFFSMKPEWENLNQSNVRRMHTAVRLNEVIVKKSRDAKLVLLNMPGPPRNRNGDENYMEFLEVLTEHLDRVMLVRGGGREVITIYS
Nature of the assay: KCC2 thallium transport FLIPR-based assay (Tl+ influx in HEK293 cells expressing KCC2). It is filed as cell-based. The note with it: 90 min compound incubation at RT, thallium flux at 120 s used to determine EC50. The procedure:
A thallium transport FLIPR-based assay was used to measure the ability of compounds to activate KCC2. KCC2 activity is assessed by measuring KCC2-dependent Tl^+ influx in a KCC2-expressing cell. The assay protocol was based on those described by Delpire et al (Proc Natl Acad Sci USA. 2009 Mar. 31; 106(13): 5383-5388) and Zhang et al (Journal of Biomolecular Screening 15(2): 2010).
KCC2 was synthesised and codon optimised by GeneArt based on the Uniprot sequence Q9H2X9. The final sequence was subcloned into pcDNA3.1.
HEK293 cells were grown in 10 layer cell stacks at 37° C., 5% CO2, in DMEM, 10% fetal calf serum and 2 mM Glutamine. The cells were detached by removing the media and washing the cell stack with 100 ml of PBS. The PBS was removed and 100 ml of 1× TrypLE was added and the cell stack returned to 37° C. for 5 min. The detached cells were then counted in a Vi Cell counter and spun for 10 min at 1250 rpm in a Sorval Legend centrifuge. The cells were diluted down in Maxcyte electroporation buffer at 4× the final concentration and spun as before. The cell pellet was resuspended at 1×10^8/cells per ml and electroporated in a Maxcyte Cl 2.2 bag on a Maxcyte STX machine via the HEK293 programme with 200 ug/ml of plasmid DNA. The cells were then allowed to recover for 30 min before adding to 500 ml of PBS and then counted again on the Vi Cell. The cells were then frozen down in planer controlled rate freeze in 90% complete media, 10% DMSO.
All reagents were dispensed using a Mulitdrop Combi unless stated otherwise. All FluXOR Invitrogen propriety buffer compositions are mentioned in tables below.
HEK293 KCC2 cells were harvested at a density of 3.33×10^5 cells/mL in complete media (DMEM, Sigma, D6546, 10% fetal calf serum and 1% Glutamax) and 30 μL per well seeded into 384-well PDL coated black-clear plates (Corning, 354663). Leave cells at RT for 20 mins to settle before incubating for 48 h at 37° C., 5% CO2. Following incubation, perform three wash steps in HBSS (Sigma, H6648) using a Biotek cell washer with the final aspiration leaving 20 μL HBSS residual volume in each well. A further 20 μL per well of thallium loading dye is then added (1 h, RT, protect from light). 5 μL of test compounds (100 μM top concentration, 1:2 dilutions, 12 point curve) were added using the FLIPR TETRA and incubated at RT for 90 min in the dark. Following compound incubation, the thallium flux response is read on FLIPR TETRA (ex. 515-575 nm) which is initiated by FLIRR TETRA dispensing 5 μL stimulus buffer into each well. Recordings are measured every 1 second for 120 seconds. Thallium flux at 120 s used to determine EC50.
Compound buffer: Assay buffer with 1 μL of bumetanide per 10 ml.

Each structure is given as a SMILES string. pEC50: −log10 of the molar value.

For `CC(C)N1Cc2c(Nc3ccc(C4CCCCC4)cc3)nc(-c3cnco3)nc2C1=O` [Example 48, 4-[(4-cyclohexylphenyl)amino]-2-(1,3-oxazol-5-yl)-6-(propan-2-yl)-5,6-dihydro-7H-pyrrolo[3,4-d]pyrimidin-7-one], the pEC50 was 5.20.

`CC(C)N1Cc2c(Nc3ccc(C4CCC4)cc3)nc(N3CCOCC3)nc2C1=O` [Example 63, 4-[(4-cyclobutylphenyl)amino]-2-(morpholin-4-yl)-6-(propan-2-yl)-5,6-dihydro-7H-pyrrolo[3,4-d]pyrimidin-7-one] gave a negative logarithm of the EC50 (pEC50) of 5.24.

As for `CCCCCCCOc1ccc(-c2ccc(Nc3nc(N4CCOC(C5CC5)C4)nc4c3COC4)cc2)cc1` (centres unmarked) [Example 93], the pEC50 is 5.85.

In turn, `CC(C)N1Cc2c(Nc3ccc(C4CCCCC4)cc3)nc(N3CCOCC3CO)nc2C1=O` (centres unmarked) [Example 32, 4-[(4-cyclohexylphenyl)amino]-2-[3-(hydroxymethyl)morpholin-4-yl]-6-(propan-2-yl)-5,6-dihydro-7H-pyrrolo[3,4-d]pyrimidin-7-one] had a pEC50 of 5.31.

In turn, `CC(C)N1Cc2nc(N3CCO[C@H](C)C3)nc(Nc3ccc(C4CCCCC4)cc3)c2C1` [Example 110, (R)—N-(4-cyclohexylphenyl)-6-isopropyl-2-(2-methylmorpholino)-6,7-dihydro-5H-pyrrolo[3,4-d]pyrimidin-4-amine] had a pEC50 of 5.14.

In turn, `CN1CCC(N2Cc3nc(N4CCOC(C5CC5)C4)nc(Nc4ccc(C5CCCCC5)cc4)c3C2)CC1` (centres unmarked) [Example 112, N-(4-cyclohexylphenyl)-2-(2-cyclopropylmorpholino)-6-(1-methylpiperidin-4-yl)-6,7-dihydro-5H-pyrrolo[3,4-d]pyrimidin-4-amine] gave a pEC50 of 5.45.

On to `CCCc1ccc(Nc2nc(N3CCO[C@H](C)C3)nc3c2CN(C(C)C)C3=O)cc1` [Example 60, 2-[(2R)-2-methylmorpholin-4-yl]-6-(propan-2-yl)-4-[(4-propylphenyl)amino]-5,6-dihydro-7H-pyrrolo[3,4-d]pyrimidin-7-one], for which the pEC50 is 5.32.

With `NC(=O)c1cnc2nc(N3CCOC(C4CC4)C3)nc(Nc3ccc(C4CCCCC4)cc3)c2c1` (centres unmarked) [Example 105, 4-((4-cyclohexylphenyl)amino)-2-(2-cyclopropylmorpholino) pyrido[2,3-d]pyrimidine-6-carboxamide], the pEC50 was 5.93.

For `C1=C(c2nc3c(c(Nc4ccc(C5CCC5)cc4)n2)COC3)CCOC1` [Example 91, N-(4-cyclobutylphenyl)-2-(3,6-dihydro-2H-pyran-4-yl)-5,7-dihydrofuro[3,4-d]pyrimidin-4-amine], the pEC50 is 5.00.

Take `CC(C)N1Cc2c(Nc3ccc(C(F)(F)C(F)(F)F)cc3)nc(N3CCO[C@H](C)C3)nc2C1=O` [Example 61, 2-[(2R)-2-methylmorpholin-4-yl]-4-{[4-(pentafluoroethyl)phenyl]amino}-6-(propan-2-yl)-5,6-dihydro-7H-pyrrolo[3,4-d]pyrimidin-7-one]: the pEC50 was 5.26.

`CC(C)N1Cc2c(Nc3ccc(C4CCCCC4)cc3)nc(-c3cnn(C)c3)nc2C1=O` [Example 47, 4-[(4-cyclohexylphenyl)amino]-2-(1-methyl-1H-pyrazol-4-yl)-6-(propan-2-yl)-5,6-dihydro-7H-pyrrolo[3,4-d]pyrimidin-7-one] showed a pEC50 of 5.50.

On to `CC(C)N1Cc2c(Nc3ccc(C4CCCCC4)cc3)nc(N3CCOC(C4CC4)C3)nc2C1=O` (single isomer, unassigned) [Example 15, 4-[(4-cyclohexylphenyl)amino]-2-(2-cyclopropylmorpholin-4-yl)-6-(propan-2-yl)-5,6-dihydro-7H-pyrrolo[3,4-d]pyrimidin-7-one], for which the pEC50 was 6.11.

With `CCN(CC)c1nc(Nc2ccc(C(C)C)cc2)c2c(n1)C(=O)N(C(C)C)C2` [Example 1, 2-(Diethylamino)-6-isopropyl-4-((4-isopropylphenyl)amino)-5,6-dihydro-7H-pyrrolo[3,4-d]pyrimidin-7-one], the pEC50 was 5.77.

`C[C@@H]1CN(c2nc(Nc3ccc(C4CCC4)cc3)c3c(n2)C(=O)N(CCN(C)C)C3)CCO1` [Example 75, 4-[(4-cyclobutylphenyl)amino]-6-[2-(dimethylamino)ethyl]-2-[(2R)-2-methylmorpholin-4-yl]-5,6-dihydro-7H-pyrrolo[3,4-d]pyrimidin-7-one] gave a pEC50 of 5.42.

`CC(C)N1Cc2c(Nc3ccc(C4CCCCC4)cc3)nc(-c3ccnc(C4CC4)c3)nc2C1=O` [Example 42, 4-[(4-cyclohexylphenyl)amino]-2-(2-cyclopropylpyridin-4-yl)-6-(propan-2-yl)-5,6-dihydro-7H-pyrrolo[3,4-d]pyrimidin-7-one] had a pEC50 of 6.20.

For `CC(C)N1Cc2c(Nc3ccc(C4CCCCC4)cc3)nc(N(C)CCc3ccccn3)nc2C1=O` [Example 37, 4-[(4-cyclohexylphenyl)amino]-2-{methyl[2-(pyridin-2-yl)ethyl]amino}-6-(propan-2-yl)-5,6-dihydro-7H-pyrrolo[3,4-d]pyrimidin-7-one], the pEC50 was 5.20.

In turn, `C[C@@H]1CN(c2nc(Nc3ccc(C4CCCCC4)cc3)c3cc(C(=O)O)cnc3n2)CCO1` [Example 103, (R)-4-((4-cyclohexylphenyl)amino)-2-(2-methylmorpholino)pyrido[2,3-d]pyrimidine-6-carboxylic acid] gave a pEC50 of 5.40.

In turn, `CC(C)c1ccc(Nc2nc(-c3ccncc3)nc3c2CN(C(C)C)C3=O)cc1` [Example 40, 6-isopropyl-4-((4-isopropylphenyl)amino)-2-(pyridin-4-yl)-5,6-dihydro-7H-pyrrolo[3,4-d]pyrimidin-7-one] showed a pEC50 of 5.20.

In the case of `CC(C)Oc1ccc(Nc2nc(N3CCOC(C4CC4)C3)nc3c2CN(C(C)C)C3=O)cc1` (centres unmarked) [Example 62, 2-(2-cyclopropylmorpholin-4-yl)-6-(propan-2-yl)-4-({4-[(propan-2-yl)oxy]phenyl}amino)-5,6-dihydro-7H-pyrrolo[3,4-d]pyrimidin-7-one], the pEC50 is 5.25.

Molecule `C#CCCC1(CCOc2ccc(-c3ccc(Nc4nc(C5=CCOCC5)nc5c4CN(C(C)C)C5=O)cc3)cc2)N=N1` [Example 81, 4-((4′-(2-(3-(but-3-yn-1-yl)-3H-diazirin-3-yl)ethoxy)-[1,1′-biphenyl]-4-yl)amino)-2-(3,6-dihydro-2H-pyran-4-yl)-6-isopropyl-5,6-dihydro-7H-pyrrolo[3,4-d]pyrimidin-7-one] had a negative logarithm of the EC50 (pEC50) of 5.61.

The term pEC50 denotes the EC50 on a negative log10 scale, so that one unit is a factor of ten.
